This is an account of results in ChEMBL document CHEMBL1151131, “Bioactivity of the essential oil of Bupleurum fruticosum” (1989).

The subject of test [1] is Rattus norvegicus. As to the kind of experiment: Antiinflammatory activity against carrageenan-induced plantar edema in Wistar rat hind paw at 20 mg/kg, ip administered 1 hr before carrageenan challenge measured after 3 hrs. Type of test: functional. Particulars: route intraperitoneal. Background: The carrageenan paw model is a standard test of acute inflammation.
Test [2] has as its system Rattus norvegicus. Description: Antiinflammatory activity against carrageenan-induced plantar edema in Wistar rat hind paw at 80 mg/kg, ip administered 1 hr before carrageenan challenge measured after 3 hrs. Type of test: functional. Particulars: route intraperitoneal.
Test [3] has as its system Rattus norvegicus. As to the kind of experiment: Antiinflammatory activity against carrageenan-induced plantar edema in Wistar rat hind paw at 80 mg/kg, ip administered 1 hr before carrageenan challenge measured after 5 hrs. Particulars: route intraperitoneal. Type of test: functional.
Test [4] concerns Rattus norvegicus. As to the kind of experiment: Antiinflammatory activity against carrageenan-induced plantar edema in Wistar rat hind paw at 20 mg/kg, ip administered 1 hr before carrageenan challenge measured after 5 hrs. Type of test: functional. Conditions: route intraperitoneal.
Test [5] has as its system Rattus norvegicus. Description: Antiinflammatory activity against carrageenan-induced plantar edema in Wistar rat hind paw at 80 mg/kg, ip administered 1 hr before carrageenan challenge measured after 1 hrs. Type of test: functional. Conditions: route intraperitoneal.
The test system of test [6] is Rattus norvegicus. Description: Antiinflammatory activity against carrageenan-induced plantar edema in Wistar rat hind paw at 40 mg/kg, ip administered 1 hr before carrageenan challenge measured after 5 hrs. Type of test: functional. Particulars: route intraperitoneal.
The test system of test [7] is Rattus norvegicus. As to the kind of experiment: Antiinflammatory activity against carrageenan-induced plantar edema in Wistar rat hind paw at 40 mg/kg, ip administered 1 hr before carrageenan challenge measured after 3 hrs. It counts as functional. Conditions: route intraperitoneal.
Test [8] deals with Rattus norvegicus. As to the kind of experiment: Antiinflammatory activity against carrageenan-induced plantar edema in Wistar rat hind paw at 40 mg/kg, ip administered 1 hr before carrageenan challenge measured after 1 hrs. It counts as functional. Particulars: route intraperitoneal.
Test [9] relates to Rattus norvegicus. As to the kind of experiment: Antiinflammatory activity against carrageenan-induced plantar edema in Wistar rat hind paw at 20 mg/kg, ip administered 1 hr before carrageenan challenge measured after 1 hrs. Type of test: functional. Conditions: route intraperitoneal.
Test [10] concerns Uterus. As to the kind of experiment: Antispasmodic activity against oxytocin-induced contraction in Wistar rat uterus at 1.1 ug/ml. It counts as functional, tissue-based.
The test system of test [11] is Rattus norvegicus. Description: Antiinflammatory activity against carrageenan-induced plantar edema in Wistar rat hind paw at 66 mg/kg, ip administered 1 hr before carrageenan challenge measured after 3 hrs. It counts as functional. Particulars: route intraperitoneal.
For test [12], the system named is Rattus norvegicus. Description: Antiinflammatory activity against carrageenan-induced plantar edema in Wistar rat hind paw at 33 mg/kg, ip administered 1 hr before carrageenan challenge measured after 3 hrs. Particulars: route intraperitoneal. It counts as functional.
The test system of test [13] is Uterus. Description: Antispasmodic activity against oxytocin-induced contraction in Wistar rat uterus at 2.2 ug/ml. It counts as functional, tissue-based.

SMILES strings stand for the structures. Activity calls are given as the source filed them. No cut-off for these calls is given here.

Regarding `CC1=CCC2CC1C2(C)C` (stereo not drawn) [ALPHA-PINENE], the Activity is given as 8.9% in test [1]; 26.2% in [2]; 13.2% in test [3]; -1.6% in test [4]; 19% in [5]; 14% in test [6]. In addition, the Activity is listed as 21% in [7], 20.4% in [8] and 5.6% in [9].

In the case of `C=C1CCC2CC1C2(C)C` (stereo not drawn) [BETA-PINENE], the Activity is 15.1% in test [1]; 32.2% in test [2]; 31.9% in [3]; 16.7% in test [4]; 8.7% in test [5]; 14.9% in test [6]. Moreover, the Activity in [7] is 19.2%; in test [8], 27.5%; in test [9], 20.5%.

As for `CC1=CCC2C(C1)C2(C)C` (configuration not stated) [CARENE], the result in [10] and in test [13] was Active. For the same compound, the Activity in test [11] stood at 77%; in test [12] it was 50.3%.
